# From patent US4061626A, “Somatostatin analogs and intermediates thereto” (Eli Lilly and Company, priority 1976, dated 1977)
# Where a SMILES comes first, the peptide text is derived from it.
# Assays:
# [1] = test system: growth hormone secretion; assay: release of growth hormone in sodium pentobarbital-stimulated rats; type: in vivo, Spraque-Dawley rats
# Method: D-Lys^4 -somatostatin and D-Ala^2,D-Lys^4 -somatostatin also were tested for their activity with respect to the release of growth hormone. The procedure which was employed is carried out using mature male Spraque-Dawley rats (Laboratory Supply Company, Indianapolis, Indiana). The test is a modification of the method of P. Brazeau, W. Vale, and R. Guilleman, Endocrinology, 94 184 (1974). In this assay, two sets, one comprising five groups of eight rats each and the other comprising three groups of eight rats each were employed. First, sodium pentobarbital was administered to all of the rats of a particular set to stimulate growth hormone secretion. In the set comprising five groups of eight rats, one group is the control group and received only saline. Two of the groups received somatostatin, one at 2 μg./rat, subcutaneously, and the other at 50 μg./rat, subcutaneously. The other two groups received D-Ala^2,D-Lys^4 -somatostatin, one at 2 μg./rat, subcutaneously and the other at 50 μg./rat, subcutaneously. The degree of inhibition of serum growth hormone concentration then was determined with respect to the control group, and the relative activities of D-Ala^2,D-Lys^4 -somatostatin and somatostatin itself were compared.
# The other set of three groups of eight rats each was treated in the same manner as above, with the exception the D-Lys^4 -somatostatin was used in place of D-Ala^2,D-Lys^4 -somatostatin, and the test was carried out only at a 50 μg./rat dose level. The D-Lys^4 -somatostatin stimulated growth hormone secretion by about 8 percent over control, while somatostatin in this set inhibited growth hormone secretion by 70 percent over control.
# [2] = test system: glucagon secretion; assay: in vivo inhibition of glucagon secretion upon stimulation with insulin; parameters: species or system mongrel dogs; settings: dogs; insulin 0.3 units/kg. i.v.; infusion 0.07-0.13 μg/kg/min. (D-Lys^4 at 0.150, D-Ala^2,D-Lys^4 at 0.114 μg/kg/min.)
# Method: D-Lys^4 -somatostatin and D-Ala^2,D-Lys^4 -somatostatin also were evaluated for in vivo activity in inhibiting glucagon secretion upon stimulation with insulin. Normal mongrel dogs of either sex were fasted overnight. After control blood samples had been obtained, an intravenous infusion of saline, somatostatin, D-Lys^4 -somatostatin, or D-Ala^2,D-Lys^4 -somatostatin was commenced. After 15 minutes, insulin, 0.3 units/kg., was injected intravenously. The infusion of saline, somatostatin, or the test compound was continued for two hours, and blood samples were obtained at various intervals throughout the test. The total dose of the somatostatin or test compound ranged from 120-260 μg./dog (0.07-0.13 μg/kg/min.). Administration of insulin produced a reduction in the blood glucose concentration and an increase in serum glucagon concentration.
# [3] = test system: gastric HCl secretion; assay: in vivo inhibition of gastric acid secretion in dogs with chronic gastric fistula and Heidenhain pouch; settings: infused at 3 μg/kg-hr. for one hour, secretion induced by C-terminal tetrapeptide of gastrin 0.5 μg/kg-hr
# Method: D-Lys^4 -somatostatin and D-Ala^2,D-Lys^4 -somatostatin also were tested in dogs for their in vivo inhibition of gastric acid secretion. In dogs with chronic gastric fistula and Heidenhain pouch, gastric HCl secretion was induced by infusion of the C-terminal tetrapeptide of gastrin at 0.5 μg/kg-hr. One dog served as control, receiving only the tetrapeptide. Another dog received the tetrapeptide and somatostatin while the test compound was administered to other dogs in place of somatostatin. After one hour of steady state secretion of HCl, somatostatin or the test compound was infused at 3 μg/kg-hr. for one hour. Collection of gastric acid samples was continued for an additional 1.5 hours at 15 minute intervals.
# [4] = test system: pancreatic secretion; assay: inhibition of secretin-induced pancreatic secretion in dogs with pancreatic and total gastric fistula; type: in vivo; settings: 3 μg/kg-hr for one hour, secretin 0.5 unit/kg-hr.
# Method: D-Ala^2,D-Lys^4 -somatostatin was also shown to inhibit pancreatic secretion. In three dogs having both pancreatic and total gastric fistula, secretion from the pancreas was induced by infusion of secretin at 0.5 unit/kg-hr. and gastric HCl by infusion of tetragastrin at 0.5 μg/kg-hr. After a steady response was established, administration of the test compound was begun. One of the dogs was retained as control, and, of the remaining two dogs, one received somatostatin and the other D-Ala^2,D-Lys^4 -somatostatin, each for one hour at 3 μg/kg-hr.Peak inhibitory effects expressed as percent changes over control are as follows: […]
# [5] = test system: glucagon and insulin secretion; assay: in vivo inhibition of glucagon and insulin secretion upon stimulation with L-alanine; parameters: species or system mongrel dogs; settings: dogs
# Method: D-Ala^2,D-Lys^4 -somatostatin was tested for its in vivo activity in inhibiting glucagon and insulin secretion upon stimulation with L-alanine. Normal mongrel dogs of either sex were fasted overnight. Control blood samples were obtained, and then an intravenous infusion of saline, somatostatin, or D-Ala^2,D-Lys^4 -somatostatin was started. After 30 minutes, L-alanine additionally was administered intravenously for a period of 15 minutes. The infusion of saline, somatostatin, or D-Ala^2,D-Lys^4 -somatostatin was continued for 15 minutes after completion of the alanine infusion. The total dose of somatostatin or D-Ala^2,D-Lys^4 -somatostatin which was infused is 200-500 μg./dog (0.20-0.30 μg/kg./minute), and the total dose of L-alanine infused was 1 mmol/kg.
# [6] = intravenous infusion 0.20-0.30 μg/kg./minute (D-Ala^2,D-Lys^4 -somatostatin at 0.253 μg/kg/min.), L-alanine 1 mmol/kg
Structure (SMILES),"stimulation of growth hormone secretion over control ([1]; 50 μg./rat, set of three groups)",effect on the increase in serum glucagon concentration produced by insulin administration [2],inhibition of gastric acid secretion relative to the control [3] [%],"Pancreatic Secretion HCO3^-, peak inhibitory effect as percent change over control [4] [%]","Pancreatic Secretion Protein, peak inhibitory effect as percent change over control [4] [%]","Pancreatic Secretion Volume, peak inhibitory effect as percent change over control [4] [%]","stimulation of growth hormone secretion over control ([1]; 2 μg./rat, subcutaneously, set of five groups) [%]","stimulation of growth hormone secretion over control ([1]; 50 μg./rat, subcutaneously, set of five groups) [%]","effect on basal serum insulin concentration ([5]; intravenous infusion 0.20-0.30 μg/kg./minute (D-Ala^2,D-Lys^4 -somatostatin at 0.253 μg/kg/min.))","effect on the rise in serum glucagon concentration during infusion of L-alanine [5, 6]","effect on the rise in serum insulin concentration during infusion of L-alanine [5, 6]",effect on basal secretion of glucagon ([5]; intravenous infusion at 0.253 μg/kg/min.)
C[C@H](N)C(=O)NCC(=O)N[C@H]1CSSC[C@@H](C(=O)O)NC(=O)[C@H](CO)NC(=O)[C@H]([C@@H](C)O)NC(=O)[C@H](Cc2ccccc2)NC(=O)[C@H]([C@@H](C)O)NC(=O)[C@H](CCCCN)NC(=O)[C@H](Cc2c[nH]c3ccccc23)NC(=O)[C@H](Cc2ccccc2)NC(=O)[C@H](Cc2ccccc2)NC(=O)[C@H](CC(N)=O)NC(=O)[C@@H](CCCCN)NC1=O [D-Lys^4 -somatostatin],about 8%,neither inhibited,87.3,,,,,,,,,
"C[C@H](N)C(=O)N[C@H](C)C(=O)N[C@H]1CSSC[C@@H](C(=O)O)NC(=O)[C@H](CO)NC(=O)[C@H]([C@@H](C)O)NC(=O)[C@H](Cc2ccccc2)NC(=O)[C@H]([C@@H](C)O)NC(=O)[C@H](CCCCN)NC(=O)[C@H](Cc2c[nH]c3ccccc23)NC(=O)[C@H](Cc2ccccc2)NC(=O)[C@H](Cc2ccccc2)NC(=O)[C@H](CC(N)=O)NC(=O)[C@@H](CCCCN)NC1=O [D-Ala^2,D-Lys^4 -somatostatin, D-Ala^2, D-Lys^4 -somatostatin] (HELM PEPTIDE1{A.[dA].C.[dK].N.F.F.W.K.T.F.T.S.C}$PEPTIDE1,PEPTIDE1,3:R3-14:R3$$$V2.0)",,neither inhibited,50.9,-68,-55.4,-61,114,~200,slight decrease,partial inhibition,partial inhibition,slight decrease
